Experimental data: article PMC9291755, “The Effect of Food on the Pharmacokinetics of the Potassium‐Competitive Acid Blocker Vonoprazan” (Clinical Pharmacology in Drug Development, 2021)
“Also recorded” adds a separate entry of the source. Read-outs that look alike come from different tables or passages of the source.

Experiments:
[1] = Phase 1 randomized open-label crossover food-effect pharmacokinetic study, plasma vonoprazan by LC-MS/MS; assay type: in vivo, healthy Caucasian male and female subjects (human); conditions: for AUC / Cmax / tmax: po, 20 mg; for tmax: read-out: tmax, median (min, max)
Procedure: This was a randomized, open‐label, 2×2 crossover, phase 1 study stratified by gender in healthy Caucasian male and female subjects. The study was conducted at a single site in Northern Ireland (MDS Pharma Services, Belfast, Northern Ireland). The study was approved by an independent ethics committee (Edinburgh Independent Ethics Committee, Edinburgh, Scotland). Written informed consent was obtained from all subjects before study initiation.
The enrolled study population included 12 men and 14 women aged 18 to 45 years, of Caucasian ethnicity, considered eligible on the basis of study inclusion and exclusion criteria. To be eligible, subjects must have been in good health and have had clinical laboratory evaluations (including clinical chemistry, hematology, and urinalysis) within the reference range for the testing laboratory, or only minor deviations that were deemed by the investigator to be clinically nonsignificant. Additional inclusion criteria included a body mass index between 18 and 30 kg/m^2 and a willingness to provide written informed consent before any screening procedures; abstention from caffeine, alcohol, and strenuous exercise from 72 hours before dosing until the follow‐up call/visit; and use of adequate contraception from screening, throughout the study, and for 30 days following the last dose of study medication (applicable to female subjects of childbearing potential who were sexually active) or for 12 weeks after the follow‐up visit (applicable to male subjects with female partners, both of whom were required to use contraception). In addition to caffeine and alcohol, subjects who had received the following were excluded from participation: nicotine products 6 weeks before the first dose of study medication; antibiotics within 28 days prior to initial screening; prescription medication or St. John's wort, ginseng, kava, ginkgo biloba, melatonin, herbal or homeopathic preparations, or other nutriceuticals within 28 days before the first dose; over‐the‐counter medication including salicylates (except when approved on a case‐by‐case basis) or vitamin supplements within 14 days before the first dose; and grapefruit or grapefruit products, Seville oranges (sour) or products, or poppy seeds within 7 days before the first dose.
Subjects were randomized to either the fed/fasted state or fasted/fed state sequence, with randomization stratified by sex. Eligible subjects received a single 20‐mg dose of vonoprazan (given as two 10‐mg tablets) either following an overnight fast or 30 minutes after a breakfast (≈900 calories, with 62% of the calories from fat, 23% from carbohydrate, and 14% from protein).
After a 5‐day washout period, subjects received a second 20‐mg dose of vonoprazan in the alternative fed/fasted state, and the identical process was performed. During dosing in the fasted state, subjects fasted for 10 hours before receiving the study drug. During dosing in the fed state, subjects fasted for 10 hours and then consumed the breakfast, which was started 30 minutes before dosing and eaten in ≤30 minutes. Vonoprazan was taken with 240 mL of water, and subjects refrained from eating for 4 hours after dosing. Water (200 mL) was given to all subjects at 2 and 4 hours after dosing. All administrations of vonoprazan were taken under supervision.
Plasma concentrations of vonoprazan were determined using a liquid chromatography–tandem mass spectrometry assay with a validated concentration range of 0.1 to 100 ng/mL. A total of 864 samples were analyzed in 13 reported batches. The bioanalytical method utilized protein precipitation and extraction of plasma samples with acetonitrile‐formic acid (100:0.2, v/v) before analysis by liquid chromatography–tandem mass spectrometry. […]

[2] = set-up: method as in PMID 26369775; conditions: single 20 mg, cited from earlier work
[3] = set-up: method as in PMID 25707624; conditions: 20 mg once daily after ≥10-hour fast, cited from earlier work
[4] = set-up: method as in PMID 25707624; conditions: 20 mg once daily after ≥10-hour fast, cited from earlier work; remark: listed apart in the source
[5] = cited from earlier work
gastric acid secretion = tested on: gastric acid secretion; set-up: method as in PMID 26111126; conditions: single doses ≥20 mg, clinical studies; cited from earlier work
[6] = set-up: method as in PMID 17575528, PMID 21132072; conditions: no enteric coating required; cited from earlier work
[7] = tested on: cytochrome P450 (CYP) 3A4; set-up: method as in PMID 26369775, PMID 29383028, PMID 27414183; conditions: lesser extent by CYP2B6, CYP2C19, CYP2D6; cited from earlier work
[8] = set-up: method as in PMID 25707624, PMID 28198590, PMID 26193978, PMID 31990424; conditions: 212 healthy volunteers, daily doses up to 40 mg for up to 7 days; cited from earlier work
[9] = Safety/tolerability in the food-effect study (adverse events, vital signs, ECG, laboratory tests); conditions: for Incidence of AEs: single 20-mg dose, 24 subjects
Text: Safety variables included physical examination findings; vital signs; electrocardiograms; clinical laboratory evaluations including hematology, chemistry, and urinalysis; and treatment‐emergent adverse events (AEs).
The safety analysis set comprised all enrolled subjects who received at least 1 dose of vonoprazan and was used for safety and baseline demographics summaries.

[10] = 12 healthy Japanese adult men, unchanged vonoprazan
[11] = single 20-mg doses, fed and fasted

Work on CNCc1cc(-c2ccccc2F)n(S(=O)(=O)c2cccnc2)c1.O=C(O)/C=C/C(=O)O [vonoprazan, 1‐[5‐(2‐fluorophenyl)‐1‐(pyridin‐3‐ylsulfonyl)‐1H‐pyrrol‐3‐yl]‐N‐methylmethanamine monofumarate] yielded an AUC ([1]; both sexes, human, plasma, single 20-mg oral dose, fasted, N = 24, read-out: AUC0‐24, least-squares mean) of 154 ng·h/mL, an AUC ([1]; both sexes, human, plasma, single 20-mg oral dose, fasted, N = 24, read-out: AUC0‐∞, least-squares mean) of 171 ng·h/mL and a Cmax ([1]; both sexes, human, plasma, single 20-mg oral dose, fasted, N = 24, read-out: Cmax, least-squares mean) of 17.3 ng/mL. For the same compound, the AUC ([1]; both sexes, human, plasma, single 20-mg oral dose, fasted, n = 24, plasma, read-out: AUC0‐24, mean (SD)) was 161 ng·h/mL, the AUC ([1]; both sexes, human, plasma, single 20-mg oral dose, fasted, n = 24, plasma, read-out: AUC0‐∞, mean (SD)) was 179 ng·h/mL and the Cmax ([1]; both sexes, human, plasma, single 20-mg oral dose, fasted, n = 24, plasma, read-out: Cmax, mean (SD)) was 18.2 ng/mL. The tmax ([1]; both sexes, human, plasma, single 20-mg oral dose, fasted, n = 24) was 2 h, the Cmax ([1]; both sexes, human, plasma, single 20-mg oral dose, fed (high-fat breakfast), n = 24, plasma, read-out: Cmax, mean (SD)) was 18.9 ng/mL and the AUC ([1]; both sexes, human, plasma, single 20-mg oral dose, fed, N = 24, read-out: AUC0‐24, least-squares mean) was 174 ng·h/mL. It also gave an AUC ([1]; both sexes, human, plasma, single 20-mg oral dose, fed, N = 24, read-out: AUC0‐∞, least-squares mean) of 196 ng·h/mL, a Cmax ([1]; both sexes, human, plasma, single 20-mg oral dose, fed, N = 24, read-out: Cmax, least-squares mean) of 18.2 ng/mL and an AUC ([1]; both sexes, human, plasma, single 20-mg oral dose, fed, n = 24, plasma, read-out: AUC0‐24, mean (SD)) of 182 ng·h/mL. The AUC ([1]; both sexes, human, plasma, single 20-mg oral dose, fed, n = 24, plasma, read-out: AUC0‐∞, mean (SD)) was 206 ng·h/mL, the tmax ([1]; both sexes, human, plasma, single 20-mg oral dose, fed, n = 24) was 4 h and the half-life ([1]; both sexes, human, plasma, single 20-mg oral dose, fed, n = 24, read-out: t1/2 (terminal elimination half-life), mean (SD) (converted)) was 6.9 h. For the same compound, the “Effect of food on exposure” value ([1]; single 20-mg dose, fed vs fasted, CI within 80% to 125%) was “not meaningfully affected by food; also recorded: not materially affected by food”, the “AUC0‐24, fed/fasted ratio of geometric (least-squares) means” value ([1]; single 20-mg oral dose, N = 24) was 1.13 and the “AUC0‐∞, fed/fasted ratio of geometric (least-squares) means” value ([1]; single 20-mg oral dose, N = 24) was 1.15. The “Cmax, fed/fasted ratio of geometric (least-squares) means” value ([1]; single 20-mg oral dose, N = 24) was 1.05, the “t1/2 (terminal elimination half-life), mean (SD)” value ([1]; single 20-mg oral dose, fasted, n = 24) was 6.9 (1.45) h and the “AUC0‐48, fed/fasted ratio” value [2, 10] was 1.08. For the same compound, the “Cmax, fed/fasted ratio” value [2, 10] was 1.09, the “AUC0‐∞” value ([2]; fasted state, Japanese men) was 225.3 ng·h/mL and the Cmax ([2]; fasted state, Japanese men) was 24.3 ng/mL. For the same compound, the median tmax ([2]; fasted state, Japanese men) was 1.5 h, the t1/2 ([2]; fasted state, Japanese men) was 7.7 h and the median tmax ([2]; fed state, Japanese men) was 3.0 h. For the same compound, the tmax ([3]; day 1, Japanese study) was 1.5 h, the tmax ([3]; day 7, Japanese study) was 1.5 h and the tmax ([4]; day 1, UK study) was 1.5 h. The tmax ([4]; day 7, UK study) was 1.1 h, the “influence of CYP2C19 polymorphisms on pharmacokinetics” value ([5]; Japanese repeated-dose study and earlier phase 1 study) was “not influenced by CYP2C19 polymorphisms” and the “accumulation in plasma after multiple doses” value ([5]; doses from 10 to 40 mg, days 1 and 7) was “little to no accumulation”. For the same compound, the “median time of peak plasma concentrations (tmax)” value ([5]; oral, once-daily dosing) was at most 2 h, the Tolerability (gastric acid secretion) was “well tolerated” and the duration of action (gastric acid secretion) was 24 h. For the same compound, the onset of action (gastric acid secretion) was under 4 h, the acid stability [6] was “acid stable” and the metabolizing enzymes [7] was “primarily metabolized by cytochrome P450 (CYP) 3A4”. For the same compound, the safety signals [8] was “no safety signals”, the “Incidence of AEs” value ([9]; fasted state) was 12.5% and the “Incidence of AEs” value ([9]; fed state) was 8.3%. The Tolerability ([9]; single 20-mg doses given on 2 occasions, healthy subjects) was “safe and well tolerated”, the “Changes in liver function tests” value [9, 11] was “no obvious treatment‐emergent changes” and the “Changes in vital signs, 12-lead electrocardiograms, laboratory safety tests” value [9, 11] was “no clinically important changes”. The “Serious AEs and deaths during the study” value [9, 11] was “No serious AEs and no deaths”, the “Severity of reported AEs” value [9, 11] was “mild” and the “Number of adverse events” value ([9]; whole study, four subjects affected) was 6.
